# Data as given in US11630110B2, “Methods to identify protein interaction” (AGENCY FOR SCIENCE, TECHNOLOGY AND RESEARCH, priority 2017, dated 2023).
# Assays:
# K562 cells = test: DNA content analysis by FACS of propidium iodide staining; type: cell-based; conditions: 20 μM methotrexate, 48 hours, vs DMSO, FIG. 34
# NF-kβ signaling pathway = test: Western blotting of NFκB signalling pathway members; type: cell-based; conditions: K562 cells, 20 μM methotrexate 48 hours, presence and absence of TNF; FIG. 16A
# Procedure: Cells were washed with DPBS (without calcium and magnesium) once, then lysed in TOTEX Buffer (20 mM Hepes at pH 7.9, 0.35M NaCl, 20% Glycerol, 1% NP-40, 1 mM MgCl2, 0.1 mM EGTA) including 50 mM NaF, 0.3 mM […] and protease inhibitor cocktail. Supernatant including proteins was collected, followed by centrifugation at full speed for 20 minutes. Western blotting was performed by following standard procedures using the following antibodies: Rabbit Anti-phospho-IKKα/β (S180/181) (1:1,000; Bioworld Technology, BS5082), Rabbit Anti-phospho-IKBα (S32) (1:1,000; Cell Signalling Technology, 2859), Rabbit Anti-IKBα (1:1,000; Santa Cruz Biotechnology, sc-371), Rabbit Anti-phospho-p65 ([…]) (1:1,000; Cell Signalling Technology, 3031), Mouse Anti-HSP90 (1:1,000; BD, 610419), Goat Anti-Rabbit IgG-HRP (1:5,000; Santa Cruz Biotechnology, sc-2054) and Goat Anti-Mouse IgG-HRP (1:5,000; Santa Cruz Biotechnology, sc-2005).
smiles,measurement,setting,value
CN(Cc1cnc2nc(N)nc(N)c2n1)c1ccc(C(=O)N[C@@H](CCC(=O)O)C(=O)O)cc1 [methotrexate],cell cycle state of K562 cells,K562 cells,arrested in the S phase
same,activation of the NF-kβ signaling pathway,NF-kβ signaling pathway,suppressing activation
same,"phosphorylation of IKKα/β complex, IκBα and p65",NF-kβ signaling pathway,inhibiting phosphorylation
